According to patent US20250179103A1, “6-OXODECAHYDROPYRROLO[1,2-A][1,5]DIAZOCINE AND 6-OXODECAHYDRO-4H-PYRROLO[2,1-D][1,5]THIAZOCINE DERIVATIVES AS STAT3 AND STAT6 MODULATORS FOR THE TREATMENT OF CANCER AND INFLAMMATORY CONDITIONS” (Recludix Pharma, Inc., priority 2022, published 2025):

Assays:
[1] = target: T1, Recombinant STAT3 protein (STAT3(G127-I722)) (Homo sapiens, UniProt P40763); assay: STAT3 Fluorescence Polarization (FP) Assay; assay type: binding; conditions: STAT3(G127-I722) 25 nM, probe 5-FAM-GpYLPQTV-NH2 2 nM, 45-minute incubation
T1 construct: Recombinant STAT3 protein (STAT3(G127-I722))
Outline: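 Fluorescence polarization after a 45-min room-temperature incubation measured compound displacement of a 2 nM fluorescein-labelled phosphotyrosine peptide (5-FAM-GpYLPQTV-NH2) from 25 nM recombinant STAT3(G127-I722). Buffer was 10 mM HEPES pH 7.4 with 1% DMSO final. IC50s were fitted by nonlinear regression of mP against log concentration.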

[2] = target: T2, Recombinant STAT6 protein (STAT6(W123-T658)) (Homo sapiens, UniProt P42226); assay: STAT6 Fluorescence Polarization (FP) Assay; assay type: binding; conditions: STAT6(W123-T658) 250 nM, probe 5-FAM-ApYKPFQDLI-NH2 2 nM, 45-minute incubation
T2 construct: Recombinant STAT6 protein (STAT6(W123-T658))
T2 sequence (P42226 123-658): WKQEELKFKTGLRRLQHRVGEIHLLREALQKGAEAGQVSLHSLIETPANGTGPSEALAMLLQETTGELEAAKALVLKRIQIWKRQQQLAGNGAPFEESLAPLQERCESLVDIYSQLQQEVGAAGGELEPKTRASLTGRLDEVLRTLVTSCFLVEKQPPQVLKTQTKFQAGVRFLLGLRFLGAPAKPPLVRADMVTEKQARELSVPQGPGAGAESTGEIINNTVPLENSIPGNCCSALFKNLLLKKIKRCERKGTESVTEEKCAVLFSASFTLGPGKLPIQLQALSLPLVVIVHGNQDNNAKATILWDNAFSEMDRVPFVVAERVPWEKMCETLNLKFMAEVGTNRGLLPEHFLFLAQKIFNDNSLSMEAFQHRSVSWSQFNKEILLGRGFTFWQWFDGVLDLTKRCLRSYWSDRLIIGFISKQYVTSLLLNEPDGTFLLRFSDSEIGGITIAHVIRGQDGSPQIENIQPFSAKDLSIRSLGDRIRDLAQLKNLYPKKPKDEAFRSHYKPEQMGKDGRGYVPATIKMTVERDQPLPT
Outline: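 Displacement of a fluorescent phosphotyrosine peptide (5-FAM-ApYKPFQDLI-NH2, 2 nM) from STAT6(W123-T658) (250 nM), 1% DMSO, pH 7.4 HEPES buffer. After 45 min at room temperature, polarization (mP) was plotted versus log compound concentration and fitted by nonlinear regression to give IC50.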

T1 sequence (P40763 127-722): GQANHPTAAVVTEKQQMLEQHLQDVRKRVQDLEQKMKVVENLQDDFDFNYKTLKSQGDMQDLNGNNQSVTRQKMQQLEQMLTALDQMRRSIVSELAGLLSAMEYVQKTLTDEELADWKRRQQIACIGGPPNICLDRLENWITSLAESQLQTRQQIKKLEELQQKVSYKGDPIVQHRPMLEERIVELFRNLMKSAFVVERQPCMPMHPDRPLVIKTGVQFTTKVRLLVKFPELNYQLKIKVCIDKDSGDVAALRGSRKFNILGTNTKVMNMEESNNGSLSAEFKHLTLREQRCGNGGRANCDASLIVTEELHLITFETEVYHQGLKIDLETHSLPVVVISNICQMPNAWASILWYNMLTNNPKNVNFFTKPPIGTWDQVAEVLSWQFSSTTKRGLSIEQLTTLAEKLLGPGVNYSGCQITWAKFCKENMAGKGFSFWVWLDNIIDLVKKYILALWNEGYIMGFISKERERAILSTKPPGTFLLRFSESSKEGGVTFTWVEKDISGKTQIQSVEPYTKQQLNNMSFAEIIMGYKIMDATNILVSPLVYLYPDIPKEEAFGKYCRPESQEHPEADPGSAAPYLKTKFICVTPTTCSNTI

Row | Compound | IC50 [1] | IC50 [2]
1 | CC(=O)N1CC[C@H]2CC[C@@H](C(=O)N(C)c3ccccc3)N2C(=O)[C@@H](NC(=O)c2ccc3ccc(C(F)P(=O)(O)O)cc3c2)C1 (stereo partly drawn) [Compound 14, ((7-(((5S,8S,10aR)-3-acetyl-8-(methyl(phenyl)carbamoyl)-6-oxodecahydropyrrolo[1,2-a][1,5]diazocin-5-yl)carbamoyl)naphthalen-2-yl)fluoromethyl)phosphonic acid] | > 10000 nM | 300 to 3000 nM
2 | CC(=O)N1CC[C@H]2CC[C@@H](C(=O)N3CCOc4cc(-c5ccccc5)ccc43)N2C(=O)[C@@H](NC(=O)c2cc3cc(C(F)(F)P(=O)(O)O)ccc3s2)C1 [Compound 197, ((2-(((5S,8S,10aR)-3-acetyl-6-oxo-8-(7-phenyl-3,4-dihydro-2H-benzo[b][1,4]oxazine-4-carbonyl)decahydropyrrolo[1,2-a][1,5]diazocin-5-yl)carbamoyl)benzo[b]thiophen-5-yl)difluoromethyl)phosphonic acid] | 100 to 1000 nM | 300 to 3000 nM
3 | CC(=O)N1CC[C@H]2CC[C@@H](C(=O)N(C)c3ccc4nnccc4c3)N2C(=O)[C@@H](NC(=O)c2ccc3ccc(C(F)(F)P(=O)(O)O)cc3n2)C1 [Compound 118, ((2-(((5S,8S,10aR)-3-acetyl-8-(cinnolin-6-yl(methyl)carbamoyl)-6-oxodecahydropyrrolo[1,2-a][1,5]diazocin-5-yl)carbamoyl)quinolin-7-yl)difluoromethyl)phosphonic acid] | > 10000 nM | 300 to 3000 nM
4 | ((2-(((5S,8S,10aR)-8-((3S,4R or 3R,4S)-3-cyano-4-phenylpyrrolidine-1-carbonyl)-3-(2,2-difluoroethyl)-6-oxodecahydropyrrolo[1,2-a][1,5]diazocin-5-yl)carbamoyl)benzo[b]thiophen-5-yl)difluoromethyl)phosphonic acid [Compound 249] | 100 to 1000 nM | ≤ 300 nM
5 | CC(=O)N1CC[C@H]2CC[C@@H](C(=O)Nc3ccc(S(C)(=O)=O)cc3)N2C(=O)[C@@H](NC(=O)c2cc3cc(C(F)(F)P(=O)(O)O)ccc3s2)C1 [Compound 70, ((2-(((5S,8S,10aR)-3-acetyl-8-((4-(methylsulfonyl)phenyl)carbamoyl)-6-oxodecahydropyrrolo[1,2-a][1,5]diazocin-5-yl)carbamoyl)benzo[b]thiophen-5-yl)difluoromethyl)phosphonic acid] | 1000 to 10000 nM | 300 to 3000 nM
6 | Cc1ccc2onc(C(=O)N3CC[C@H]4CC[C@@H](C(=O)N5CCN(S(C)(=O)=O)CC5)N4C(=O)[C@@H](NC(=O)c4ccc5ccc(C(F)P(=O)(O)O)cc5c4)C3)c2c1 (stereo partly drawn) [Compound 368, (fluoro(7-(((5S,8S,10aR)-3-(5-methylbenzo[d]isoxazole-3-carbonyl)-8-(4-(methylsulfonyl)piperazine-1-carbonyl)-6-oxodecahydropyrrolo [1,2-a][1,5]diazocin-5-yl)carbamoyl)naphthalen-2-yl)methyl)phosphonic acid] | > 10000 nM | ≤ 300 nM
7 | CC(C)CN1CC[C@H]2CC[C@@H](C(=O)N3CC(C(=O)N4CCOCC4)C3)N2C(=O)[C@@H](NC(=O)c2cc3cc(C(F)(F)P(=O)(O)O)ccc3s2)C1 [Compound 257, (difluoro(2-(((5S,8S,10aR)-3-isobutyl-8-(3-(morpholine-4-carbonyl)azetidine-1-carbonyl)-6-oxodecahydropyrrolo[1,2-a][1,5]diazocin-5-yl)carbamoyl)benzo[b]thiophen-5-yl)methyl)phosphonic acid] | 100 to 1000 nM | 3000 to 30000 nM
8 | CCN1CC[C@H](NC(=O)c2ccc3ccc(C(F)(F)P(=O)(O)O)cc3c2)C(=O)N2[C@H](CC[C@H]2C(=O)N2C[C@H](c3ccccc3)[C@@H](C#N)C2)C1 (relative stereo) [Compound 227, ((7-(((5S,8S,10aR)-8-((rel-trans)-3-cyano-4-phenylpyrrolidine-1-carbonyl)-2-ethyl-6-oxodecahydropyrrolo[1,2-a][1,4]diazocin-5-yl)carbamoyl)naphthalen-2-yl)difluoromethyl)phosphonic acid] | 1000 to 10000 nM | ≤ 300 nM
